The results in this text go back to paper PMC7352342, “Inhibition of Patched Drug Efflux Increases Vemurafenib Effectiveness against Resistant Braf^V600E Melanoma” (Cancers, 2020).

Structures can show the parent of a compound that is named as a salt. Where two headings read alike, the source gives them in different places.

Data set [1] deals with MeWo cells. In words: Cytotoxicity assay (neutral red), MeWo cells. The class given is cell-based, human. The settings on record: for Dxr-IC50 in the presence of 20 µM compound: MeWo (Figure 3B), same series also tested on A375 (Figure S1); for Dxr-IC50 in the presence of 20 µM compound / effect on dxr cytotoxicity: compound at 20 µM; for effect on dxr cytotoxicity: melanoma cells MeWo (Figure 3B) and A375 (Figure S1), compared to PAH; for IC50: Homo sapiens. As to the method:
(§1) Human melanoma cell lines A375 and MeWo were purchased from ATCC, and cultured in DMEM medium supplemented with 10% fetal bovine serum and penicillin/streptomycin (Invitrogen) at 37 °C in a 5% CO2/95% water-saturated air atmosphere. Melanoma cell lines SKMEL 28, SKMEL V3, WM9S, and WM9R were provided by Robert Ballotti (C3M, Nice, France). MeWo-dxrR cells were obtained by adding increasing concentrations of doxorubicin, up to 0.2 µM, in the culture medium over 6 months. These cells were grown in medium supplemented with 0.2 µM dxr. WM9R cells were obtained by adding increasing concentrations of vemurafenib, up to 5 µM, in the culture medium over 6 months. These cells were grown in medium supplemented with 5 µM vemurafenib. HEK cells were grown in 75 mm tissue culture dishes (Falcon, Franklin Lakes, NJ, USA) in Dulbecco’s modified Eagle’s medium (Gibco, Life Technologies, Saint Aubin, France) supplemented with 10% fetal calf serum (Hyclone, Thermo Fisher Scientific GMBH, Ulm, Germany) and 1% penicillin/streptomycin (Gibco, Life Technologies, Saint Aubin, France) in a humidified incubator at 37 °C (5% CO2).
(§2) Cells were seeded in 96-well plates in triplicate and grown in medium to achieve 70 to 80% confluence. Medium was then removed and replaced with 100 µL/well of complete medium containing PAH or DMSO as a control. After 2 h, 100 µL of complete medium containing serial dilutions of dxr, cisplatin or vemurafenib were added. Plates were incubated at 37 °C and 5% CO2. After 24 or 48 h, cells were incubated for 3 h at 37 °C with 100 µL/well neutral red (NR) solution (50 µg/mL in medium) following the manufacturer’s protocol. Measurements were made in microplate readers (Multiskan Go Microplate Spectrophotometer from Thermo Scientific).

For data set [2], the system named is A375 cells. In words: Cytotoxicity assay (neutral red), A375 cells. Type of data set: cell-based, human. The settings on record: for IC50: Homo sapiens. As to the method: as §1, §2
Data set [3] concerns MeWo cells. In words: Melanoma cells grafted on the chorioallantoic membrane (CAM) of chick eggs. Type of data set: in vivo. To be noted: MeWo tumors on CAM; sPAH 500 µM and/or Dxr 20 µM, 100 µL every two days, 10 days. On the procedure: These experiments were performed by the company INOVOTION (La Tronche, France). Fertilized White Leghorn eggs were randomized in 4 groups 9 days after inoculation of 3.10^6 MeWo cells onto the CAM of each egg. At day 10 (E10), tumors began to be detectable and they were treated by adding 100 µL of vehicle (1.2% DMSO in PBS), doxorubicin, and sPAH alone or with doxorubicin. Eggs were treated every two days (E10, E12, E14, E16, E18) for 10 days in the same way. At day 19 (E19), the upper portion of the CAM was removed, washed in PBS, and directly transferred in PFA for 48 h, and the tumors were then carefully cut away from normal CAM tissue.

For data set [4], the system named is MeWo-DxrR cells. In words: Cytotoxicity assay (neutral red), MeWo cells rendered resistant to dxr. The class given is cell-based. To be noted: Homo sapiens, Dxr + DMSO. As to the method: as §1
Cells were seeded in 96-well plates in triplicate and grown in medium to achieve 70 to 80% confluence. […] Measurements were made in microplate readers (Multiskan Go Microplate Spectrophotometer from Thermo Scientific).

For data set [5], the system named is WM9R cells. In words: Competition on dxr loading, WM9R cells. To be noted: 10 µM dxr, 100 µM vemurafenib, 1 h. Type of data set: cell-based. On the procedure: (§3) Dxr efflux measurements were carried out as previously described. Cells were seeded on coverslips in 24-well plates and allowed to grow to 80% confluence. Coverslips were incubated at 37 °C and 5% CO2 with 10 μM dxr in physiological buffer (140 mM NaCl, 5 mM KCl, 1 mM CaCl2, 1 mM MgSO4, 5 mM glucose, 20 mM HEPES, pH 7.4). After 2 h, three coverslips were immediately fixed with 4% PFA for the dxr loading control, rapidly washed with PBS and mounted in SlowFade Gold antifade reagent with DAPI (Invitrogen). The other coverslips (triplicated per condition) were incubated with physiological buffer supplemented with DMSO or 10 µM of PAH under gentle shaking at room temperature and protected from light. After 30 min, coverslips were fixed with 4% PFA, washed, and mounted as described above. For competition on dxr loading, A375 and WM9R cells seeded on coverslips were incubated for 1 h at 37 °C and 5% CO2 with 10 μM dxr in physiological buffer in the presence or the absence of 100 µM vemurafenib. Images were acquired with a Zeiss Axioplan 2 fluorescence microscope coupled to a digital charge-coupled device camera using a 40×/1.3 Plan NeoFluar objective and filters for Alexa 594. Dxr fluorescence was quantified using ImageJ software. Sampling of cells was performed randomly. About 100 cells (from three wells) were scored per condition per experiment.

Data set [6] has as its system A375 BRAF^V600E melanoma cells. In words: Melanoma xenograft study in mice. Type of data set: in vivo. The settings on record: Figure S6.
Method: Forty-eight male athymic Nu/NU NMRI mice (4–5 weeks) were purchased from Charles River and housed under pathogen-free conditions. A 200 µL aliquot of 3 Millions A375 BRAF^V600E melanoma cells were injected subcutaneously per mouse. […] Animals were monitored daily for symptoms of disease (weight loss >20%, ruffled coat, hunched back, weakness, reduced motility) and tumor sizes were measured every 3 to 4 days. […]
A part of each tumor was cut in 8 µm thick tissue sections using a microtome-cryostat for quantification of the number of apoptotic tumor cells and of proliferative cells performed using the colorimetric DeadEND TUNEL System (Promega, Mannheim, Germany) and immunofluorescence analysis of Ki67 (BD pharmigen 556003), respectively. OCT was removed from the remainder of each tumor, and tumors were crushed in 50 mM Tris-HCl pH 6.8, 10% glycerol, and 2% SDS), heated at 95 °C, and sonicated for Western blot analyses as well as vemurafenib and cholesterol quantification. Protein concentration in each homogenate was evaluated using a Bio-Rad protein assay based on the Bradford dye-binding method.
The subject of data set [7] is A375 cells. In words: Competition on dxr loading, A375 cells. The class given is cell-based, human. To be noted: 10 µM dxr, 100 µM vemurafenib, 1 h. On the procedure: as §3

As to `COc1ccc(O)c(CC=C(C)CCc2c(C)cc(OC)c(C)c2C)c1` [Compound 8], in data set [1], the “Dxr-IC50 in the presence of 20 µM compound” value (shortened to “Dxr-IC50 in the presence”) is “could not be determined, owing to greater than 50% viability” and the “effect on dxr cytotoxicity” value is given as “had no effect on dxr cytotoxicity”.
As for `COc1cc(C)c(CCC(C)=CCC2=CC(=O)C=CC2=O)c(C)c1C` [Compound 9, Panicein A], in data set [1], the “Dxr-IC50 in the presence” value is “could not be determined, owing to greater than 50% viability” and the “effect on dxr cytotoxicity” value is given as “very weakly increased the cytotoxicity of dxr”.
For the compound `COc1ccc(O)c(CCC(C)CCc2c(C)cc(OC)c(C)c2C)c1` (centres unmarked) [Compound 11], in data set [1], the “Dxr-IC50 in the presence” value is given as “could not be determined, owing to greater than 50% viability”.
`COc1cc(C)c(CCC(C)CCC2=CC(=O)C=CC2=O)c(C)c1C` (centres unmarked) [Compound 12]: the “Dxr-IC50 in the presence” value in data set [1] was “could not be determined, owing to greater than 50% viability”.
Take `COc1cc(C)c(CCC(C)CCc2cc(O)ccc2O)c(C)c1C` (centres unmarked) [Compound 13]: the “Dxr IC50 in the presence of compound relative to that in the presence of PAH” value in data set [2] (A375, 20 µM compound) is recorded as “comparable to that of PAH”; in data set [1] (MeWo, 20 µM compound) it was “approximately 4 fold”.
`COc1cccc2c1C(=O)c1c(O)c3c(c(O)c1C2=O)C[C@@](O)(C(=O)CO)C[C@@H]3O[C@H]1C[C@H](N)[C@H](O)[C@H](C)O1` [Dxr, Doxorubicin hydrochloride, reference compound]: the IC50 was 41 ± 8.2 µM in data set [2] (A-375, A375, Dxr + DMSO, 24 or 48 h, read-out: Dxr IC50); 142 ± 2.2 µM in data set [1] (MeWo, Dxr + DMSO, 24 or 48 h, read-out: Dxr IC50); 247 ± 49 µM in data set [4]. In data set [3], the “Tumor regression (%) (tumor weight with respect to control)” value came out at 28%.
On to `COc1cc(C)c(CC/C(C)=C/Cc2cc(O)ccc2O)c(C)c1C` [Natural PAH, panicein A hydroquinone], for which the IC50 was 12.4 ± 4.9 µM in data set [2] (A-375, A375 cells, 2 µM Dxr present, read-out: IC50 of PAH at 2 µM Dxr) and 6.6 ± 0.8 µM in data set [1] (MeWo, MeWo cells, 2 µM Dxr present, read-out: IC50 of PAH at 2 µM Dxr).
For the compound `CCCS(=O)(=O)Nc1ccc(F)c(C(=O)c2c[nH]c3ncc(-c4ccc(Cl)cc4)cc23)c1F` [vemurafenib], the “amount of dxr in cells in the presence of vemurafenib” value in data set [5] and in data set [7] was “significantly increased” in each case. For the same compound, in data set [6], the “ERK phosphorylation in tumor extracts (pERK/ERK, Western blot)” value is given as “reduced ERK phosphorylation”.

Usually IC50 stands for the concentration that gives 50% inhibition.
